Read-outs that look alike come from different tables or passages of the source.
Tested on: HIV-1 single-round infectious reporter virus
Assay: microbe, parasite or virus in culture
Format: cell-based
Conditions: read-out: EC50 Range
Protocol: Virus infection—Human epithelial cell line, HeLa, expressing the HIV-1 receptors CD4 and CCR5 was propagated in Dulbecco's Modified Eagle Medium (Life Technologies, Gaithersburg, Md.) containing 10% fetal Bovine serum (FBS, Sigma, St. Louis, Mo.) and supplemented with 0.2 mg/ml Geneticin (Life Technologies, Gaithersburg, Md.) and 0.4 mg/ml Zeocin (Invitrogen, Carlsbad, Calif.).
Transfections were performed using lipofectAMINE PLUS reagent as described by the manufacturer (Life Technologies, Gaithersburg, Md.).
1. Compound was added to HeLa CD4 CCR5 cells plated in 96 well plates at a cell density of 5×10^4 cells per well in 100 μl Dulbecco's Modified Eagle Medium containing 10% fetal Bovine serum at a concentration of <20 μM.
2. 100 μl of single-round infectious reporter virus in Dulbecco's Modified Eagle Medium was then added to the plated cells and compound at an approximate multiplicity of infection (MOI) of 0.01, resulting in a final volume of 200 μl per well and a final compound concentration of <10 μM.
3. Samples were harvested 72 hours after infection.
4. Viral infection was monitored by measuring luciferase expression from viral DNA in the infected cells using a luciferase reporter gene assay kit (Roche Molecular Biochemicals, Indianapolis, Ind.). Infected cell supernatants were removed and 50 μl of Dulbecco's Modified Eagle Medium (without phenol red) and 50 μl of luciferase assay reagent reconstituted as described by the manufacturer (Roche Molecular Biochemicals, Indianapolis, Ind.) was added per well. Luciferase activity was then quantified by measuring luminescence using a Wallac microbeta scintillation counter.
5. An EC50 provides a method for comparing the antiviral potency of the compounds of this invention. The effective concentration for fifty percent inhibition (EC50) was calculated with the Microsoft Excel Xlfit curve fitting software.

[1] = Human immunodeficiency virus 1, HeLa-CD4/CCR5, 72 h

Row | Compound | EC50 [1] | EC50 (HeLa CD4 CCR5 cells, single-round HIV-1 reporter virus, MOI 0.01, luciferase read 72 hours after infection)
1 | O=C(c1ccccc1)N1CCN(C(=O)c2c[nH]c3cccc(F)c23)CC1 [Example 29] | < 1 µM | 
2 | CNC(=O)c1ccc(F)c2c(C(O)C(=O)N3CCN(C(=O)c4ccccc4)CC3)c[nH]c12 (centres unmarked) [Example 32, 3-[2-(4-Benzoyl-piperazin-1-yl)-1-hydroxy-2-oxo-ethyl]-4-fluoro-1H-indole-7-carboxylic acid methylamide] | < 1 µM | 
3 | O=C(C(=O)N1CCN(C(=O)c2ccccc2)CC1)c1cc2ccccc2s1 [Example 19, 1-(benzoyl)-4-[(benzothiophen-2-yl)-2-oxoacetyl]piperazine] | 1 to 5 µM | 
4 | COc1cccc2occ(C(=O)C(C#N)N3CCN(C(=O)c4ccccc4)CC3)c12 (centres unmarked) [Example 3] | < 1 µM | 
5 | CNC(=O)c1ccc(F)c2c(CC(=O)N3CCN(C(=O)c4ccccc4)CC3)c[nH]c12 [Example 31, 3-[2-(4-Benzoyl-piperazin-1-yl)-2-oxo-ethyl]-4-fluoro-1H-indole-7-carboxylic acid methylamide] | 1 to 5 µM | 
6 | O=C(C(=O)N1CCN(C(=O)c2ccccc2)CC1)c1cc2ccccc2[nH]1 [Example 5, 1-(benzoyl)-4-[(indol-2-yl)-2-oxoacetyl]piperazine] | < 1 µM | 
7 | CCCCNc1c(C(=O)C(=O)N2CCN(C(=O)c3ccccc3)CC2)cnc2c1cnn2CC [Example 14] | > 5 µM | 
8 | CCCCNc1c(C(=O)C(=O)N2CCN(C(=O)c3ccccc3)CC2C)cnc2c1cnn2CC (centres unmarked) [Example 13] | < 1 µM | 
9 | COc1ccc2cc(C(=O)C(C#N)N3CCN(C(=O)c4ccccc4)CC3C)[nH]c2c1 (centres unmarked) [Example 2] | < 1 µM | 
10 | O=C(C(=O)N1CCN(C(=O)c2ccccc2)CC1)c1csc2ccccc12 [Example 18, 1-(benzoyl)-4-[(benzothiophen-3-yl)-2-oxoacetyl]piperazine] | 1 to 5 µM | 
11 | CC1CN(C(=O)c2ccccc2)CCN1C(=O)C(=O)c1cc2cc(F)ccc2[nH]1 (centres unmarked) [Example 8] | < 1 µM | 
12 | COc1ccc(C#N)c2[nH]cc(C(=O)N3CCN(C(=O)c4ccccc4)CC3)c12 [Example 27] | > 0.5 µM | 
13 | COc1ccc(C#N)c2[nH]cc(C(=O)N3CCN(C(=O)c4ccccc4)C[C@H]3C)c12 [Example 28] | > 0.5 µM | 
14 | N-(benzoyl)-N′-[(4-fluorol-indolin-3-yl)-acetyl]-piperazine [Example 21] |  | < 1 µM
15 | COc1c(C(=O)C(=O)N2CCN(C(=O)c3ccccc3)CC2)cnc2c1c(C)nn2C [Example 10] | 1 to 5 µM | 
16 | COc1ccc(-c2nc(C)n[nH]2)c2[nH]cc(C(=O)N3CCN(C(=O)c4ccccc4)CC3)c12 [Example 26] | 1 to 5 µM | 
17 | COc1c(C(=O)C(=O)N2CCN(C(=O)c3ccccc3)CC2C)cnc2c1c(C)nn2C (centres unmarked) [Example 12] | 1 to 5 µM | 
18 | COc1cccc2occ(C(=O)C(=O)N3CCN(C(=O)c4ccccc4)CC3)c12 [Example 6] | > 0.5 µM | 
19 | CC1CN(C(=O)c2ccccc2)CCN1C(=O)C(=O)c1cc2cc(Cl)ccc2[nH]1 (centres unmarked) [Example 9] | < 1 µM | 
20 | O=C(C(=O)N1CCN(C(=O)c2ccccc2)CC1)c1cccc2[nH]ccc12 [Example 22, 1-(4-benzoyl-piperazin-1-yl)-2-(1H-indol-4-yl)-ethane-1,2-dione] | < 1 µM | 

From patent publication US6825201B2 (priority 2001, dated 2004)
